Calls of active or inactive are those of the source.

Usually MIC stands for the smallest concentration in the dilution series that meets the test's criterion for growth inhibition. High values mean a less susceptible organism, low ones a more susceptible organism. One may read the Ki as the equilibrium dissociation constant of an inhibitor or competing ligand from its target.

Assay [1] has as its system Bacillus subtilis. Kind of assay: Antibacterial activity against Bacillus subtilis after 20 hrs by tube dilution method. Format: functional, organism-based.
Assay [2] concerns Escherichia coli. Briefly: Inhibition of bocillin FL binding to PBP 5/6 in Escherichia coli MM 294 membrane preparation at 1 mM by gel electrophoresis. It counts as cell membranes.
Assay [3] has as its system Bacillus subtilis. Briefly: Inhibition of bocillin FL binding to Bacillus subtilis PBP1 at 1 mM by gel electrophoresis.
Assay [4] has as its system Bacillus subtilis. Briefly: Inhibition of bocillin FL binding to Bacillus subtilis PBP5 at 1 mM by gel electrophoresis.
In assay [5] the test system is Escherichia coli. Briefly: Inhibition of bocillin FL binding to PBP 3 in Escherichia coli MM 294 membrane preparation at 1 mM by gel electrophoresis. It counts as cell membranes.
Assay [6] deals with Escherichia coli. Briefly: Antibacterial activity against Escherichia coli MM 294 after 20 hrs by tube dilution method. Format: functional. Conditions: MM 294, 20 h.
Assay [7] deals with Escherichia coli. Kind of assay: Inhibition of bocillin FL binding to PBP 1a/1b in Escherichia coli MM 294 membrane preparation at 1 mM by gel electrophoresis. Format: cell membranes.
Assay [8] deals with Escherichia coli. Kind of assay: Inhibition of bocillin FL binding to PBP 2 in Escherichia coli MM 294 membrane preparation at 1 mM by gel electrophoresis. Format: cell membranes.
The test system of assay [9] is Bacillus subtilis. Briefly: Inhibition of bocillin FL binding to Bacillus subtilis PBP2 at 1 mM by gel electrophoresis.
The test system of assay [10] is Bacillus subtilis. Briefly: Inhibition of bocillin FL binding to Bacillus subtilis PBP3/4 at 1 mM by gel electrophoresis.
The test system of assay [11] is Escherichia coli. Kind of assay: Inhibition of bocillin FL binding to PBP 4 in Escherichia coli MM 294 membrane preparation at 1 mM by gel electrophoresis. Format: cell membranes.
The test system of assay [12] is Escherichia coli. Briefly: Inhibition of bocillin FL binding to Escherichia coli MM 294 PBP by whole-cell assay.
The nature of assay [13]: Inhibition of bocillin FL binding to PBP 2 in Escherichia coli MM 294 membrane preparation by gel electrophoresis. Format: cell membranes.
Assay [14] is described as follows: Inhibition of bocillin FL binding to PBP 3 in Escherichia coli MM 294 membrane preparation by gel electrophoresis. Format: cell membranes.
Assay [15] can be described thus: Inhibition of bocillin FL binding to PBP 5/6 in Escherichia coli MM 294 membrane preparation by gel electrophoresis. Format: cell membranes.
Assay [16] can be described thus: Inhibition of bocillin FL binding to PBP 4 in Escherichia coli MM 294 membrane preparation by gel electrophoresis. Format: cell membranes.
Assay [17] in a line: Inhibition of bocillin FL binding to PBP 1a/1b in Escherichia coli MM 294 membrane preparation by gel electrophoresis. It counts as cell membranes.
Assay [18] in a line: Inhibition of bocillin FL binding to Escherichia coli MM 294 PBP2 by cell-free assay.
For assay [19], the system named is Escherichia coli. Briefly: Inhibition of bocillin FL binding to Escherichia coli MM 294 PBP 5/6 by cell-free assay.

As to `Oc1cccc2nccc(O)c12`, the result in the assay on Bacillus subtilis [1] was inactive. Further, the inhibition entry in the assay on Escherichia coli [2], with Escherichia coli [5], in the assay on Escherichia coli [7], with Escherichia coli [8], in the assay with Escherichia coli [11] and in the assay with Escherichia coli [12] was “inactive” in each case. For the same compound, the inhibition result in the assay with Bacillus subtilis [3], in the assay on Bacillus subtilis [4], with Bacillus subtilis [9] and with Bacillus subtilis [10] was “Active” in each case. The compound further had a minimum inhibitory concentration (MIC) against Escherichia coli [6] greater than 1000 µM.

As to `O=c1cc(CCO)[nH]c2ccccc12`, in the assay on Bacillus subtilis [1], the outcome was inactive. The Ki in assay [13] stood at 26 µM; in [14], 120 µM; in assay [15], 520 µM; in assay [16] it was 7 µM; in assay [17], 37 µM. The inhibition entry with Bacillus subtilis [3], in the assay on Bacillus subtilis [4], in the assay with Bacillus subtilis [9] and with Bacillus subtilis [10] was “Active” throughout. In addition, in the assay on Escherichia coli [6], the minimum inhibitory concentration (MIC) was greater than 1000 µM. Moreover, the inhibition entry in the assay with Escherichia coli [12] is “inactive”.

`O=C(O)Cc1c[nH]c2ccccc2c1=O`: the outcome in the assay with Bacillus subtilis [1] was inactive. For the same compound, the inhibition result in the assay on Escherichia coli [2], with Escherichia coli [5] and with Escherichia coli [12] was “inactive” each time. For the same compound, the inhibition constant Ki in assay [13] was 250 µM; in assay [16] it was 29 µM; in assay [17], 300 µM. For the same compound, the inhibition entry in the assay with Bacillus subtilis [3], with Bacillus subtilis [4], in the assay with Bacillus subtilis [9] and in the assay with Bacillus subtilis [10] was “Active” each time. Besides, the MIC in the assay with Escherichia coli [6] was greater than 1000 µM.

Take `Oc1ccnc2ccccc12`: the inhibition entry with Escherichia coli [2], with Escherichia coli [5], in the assay on Escherichia coli [7], in the assay with Escherichia coli [8] and in the assay on Escherichia coli [11] was “inactive” each time.

As to `O=C(O)c1cc(=O)c2ccccc2[nH]1` [TRANSTORINE], the outcome in the assay on Bacillus subtilis [1] was inactive. Moreover, the inhibition result in the assay on Escherichia coli [2] and in the assay on Escherichia coli [12] was “inactive” throughout. The Ki in [13] was determined as 210 µM; in assay [14], 950 µM; in assay [16], 37 µM; in [17], 470 µM. Further, the inhibition result with Bacillus subtilis [3], in the assay on Bacillus subtilis [4], in the assay on Bacillus subtilis [9] and in the assay on Bacillus subtilis [10] was “Active” in each case. This compound registered an MIC against Escherichia coli [6] greater than 1000 µM.

In the case of `O=c1cc(CCCO)[nH]c2ccccc12`, the result with Bacillus subtilis [1] was inactive. The inhibition entry in the assay on Escherichia coli [2] and in the assay with Escherichia coli [12] was “inactive” each time. Also, the Ki is 50 µM in [13], 120 µM in assay [14], 6.1 µM in assay [16] and 49 µM in [17]. Also, the inhibition result in the assay on Bacillus subtilis [3], in the assay with Bacillus subtilis [4], in the assay with Bacillus subtilis [9] and in the assay with Bacillus subtilis [10] was “Active” throughout. The minimal inhibitory concentration (MIC) against Escherichia coli [6] is greater than 1000 µM.

As to `O=c1cc[nH]c2cc(O)ccc12`, the result with Bacillus subtilis [1] was inactive. Besides, the inhibition result in the assay with Escherichia coli [2], in the assay with Escherichia coli [5] and in the assay on Escherichia coli [12] was “inactive” each time. Further, the inhibition constant (Ki) was determined as 89 µM in [13], 55 µM in [16] and 510 µM in assay [17]. The inhibition result with Bacillus subtilis [3], in the assay with Bacillus subtilis [4], in the assay with Bacillus subtilis [9] and in the assay with Bacillus subtilis [10] was “Active” throughout. The compound further had a minimum inhibitory concentration (MIC) with Escherichia coli [6] greater than 1000 µM.

Take `O=c1c(CCO)c[nH]c2ccccc12`: the outcome in the assay with Bacillus subtilis [1] was inactive. Besides, the inhibition result in the assay with Escherichia coli [2] and with Escherichia coli [12] was “inactive” in each case. Also, the inhibitory constant (Ki) is 27 µM in assay [13], 70 µM in [14], 3.1 µM in [16] and 38 µM in assay [17]. Moreover, the inhibition result with Bacillus subtilis [3], with Bacillus subtilis [4], in the assay with Bacillus subtilis [9] and in the assay with Bacillus subtilis [10] was “Active” in each case. The compound further had a minimum inhibitory concentration (MIC) with Escherichia coli [6] greater than 1000 µM.

Turning to `O=c1cc(CO)[nH]c2ccccc12`, the result in the assay on Bacillus subtilis [1] was inactive. In addition, the Ki in assay [13] worked out at 26 µM; in assay [14] it was 27 µM; in assay [15], 220 µM; in assay [16] it was 4.8 µM; in assay [17] it was 27 µM; in [18], 64 µM. Further, the inhibition result with Bacillus subtilis [3], in the assay with Bacillus subtilis [4], with Bacillus subtilis [9] and with Bacillus subtilis [10] was “Active” each time. Further, the MIC against Escherichia coli [6] is greater than 1000 µM. Besides, the inhibition entry with Escherichia coli [19] and in the assay with Escherichia coli [12] was “inactive” throughout.

The values are drawn from ChEMBL document CHEMBL2086371, “4-quinolones as noncovalent inhibitors of high molecular mass penicillin-binding proteins” (ACS Med Chem Lett, 2012).
